Results from patent US9745339B2 (GRAFFINITY PHARMACEUTICALS GMBH, priority 2012, dated 2017).

What was measured:
Cetuximab = experiment: Microtiter plate chromatography of resins: binding and elution of Cetuximab; conditions: fraction of injected protein bound; 0.5 mg/ml IgG in PBS pH 7.3
In short: (§1)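 About 30 μl resin columns loaded with 3.3 cv IgG at 0.5 mg ml^−1 in PBS (or undiluted HCP), washed with 5 cv PBS, eluted with 5 cv glycine pH 2.5. Fractions quantified by Bradford; bound fraction = (mi−mft)/mi, yield = me/mi.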

Bevacizumab [1] = molecular target: T1, Bevacizumab (Homo sapiens, UniProt P01857); experiment: Dynamic binding capacity by column chromatography
T1 construct: 0.5 mg/ml IgG in PBS pH 7.3; ligand immobilized on SEPHAR; Bevacizumab Yield; other: mass eluted (glycine pH 2.5) / mass injected; kd (dissociation constant, Langmuir isotherm); other: Bevacizumab 0.05-5 mg/ml in PBS pH 7.3, 25° C., at least 3 h; qm (maximum capacity); other: mg Bevacizumab per ml of resin; Langmuir isotherm; t0; fused on or other part: Humanized anti-VEGF-A VH domain joined N-terminally to the IGHG1 constant region (engineered, no UniProt entry)
Protocol: Dynamic binding capacities were determined by column chromatography with purified Bevacizumab. Resins were packed into analytical columns of 25 mm length and 3 mm inner diameter. Columns were fed with 1 mg/ml antibody in phosphate-buffered saline (150 mM NaCl, 20 mM phosphate buffer, pH 7.3) at a flow rate of 50 cm/h (3 min column residence time), while the concentration of antibody in effluents was monitored online via absorbance at 280 nm. Antibody was loaded until complete breakthrough of the feed. Dynamic binding capacities were determined at the 10% breakthrough. Equilibrium capacities were determined by integration of the area above the breakthrough curve. Bound antibody was stripped from columns by elution with glycine at pH 3.0.
It was calculated as the time t0.1 after which 10% breakthrough occurred, multiplied by the flow rate F and feed concentration cf. dynamiccapacity=t0.1·F·cf
Equilibrium capacity is defined as the maximum amount of antibody that binds to a column for a given feed stream concentration. It was calculated by evaluation of the following integral
[formula] containing the feed concentration cf, effluent concentration over time c(t) and flow rate F. The integral was evaluated numerically. Integration was limited to the time after which complete breakthrough had occurred. […]

Tocilizumab = experiment: Microtiter plate chromatography of resins: binding and elution of Tocilizumab; conditions: fraction of injected protein bound; 0.5 mg/ml IgG in PBS pH 7.3
In short: as §1

Bevacizumab [2] = molecular target: T1, Bevacizumab; experiment: Uptake kinetics by batch adsorption (time-scale of binding); conditions: time after which 80% of equilibrium saturation occurred; 0.75 mg/ml Bevacizumab in PBS, 25° C.
Protocol: Uptake kinetics was investigated similarly by batch adsorption in 96-well filter plates. Again, 10 μl of sorbent slurry (50% v/v) were mixed with 100 μl of protein solution. […] Reactions were agitated vigorously at 25° C. for up to 80 min. Supernatants were separated rapidly by spinning through filters after 2.5, 5, 10, 20, 40 and 80 minutes and sampled for analysis. Concentrations of the antibody were analyzed by Bradford assay.
For determination of t0.8, measured concentrations in the supernatant were interpolated by fitting of double-exponentials and values of t0.8 were read out from graphs (2).

Palivizumab = experiment: Microtiter plate chromatography of resins: binding and elution of Palivizumab; conditions: fraction of injected protein bound; 0.5 mg/ml IgG in PBS pH 7.3
In short: as §1

Bevacizumab [3] = molecular target: T1, Bevacizumab; experiment: Langmuir isotherms by batch adsorption; format: binding; conditions: for qm (maximum capacity): mg Bevacizumab per ml of resin, Langmuir isotherm; for Kd: Bevacizumab 0.05-5 mg/ml in PBS pH 7.3, 25° C., at least 3 h, read-out: kd (dissociation constant, Langmuir isotherm) (converted)
[4] = Alkaline stability of ligands in 0.5 M sodium hydroxide; format: physicochemical; conditions: 25° C., 8 days, hydrolysis monitored by LC-MS, read-out: t0.5 (half-life) (converted)
Protocol: A subset of ligands from Example 1 was tested for its alkaline stability. Ligands were treated with 0.5 M sodium hydroxide at 25° C. for 8 days. Hydrolysis was monitored by LC-MS analysis.

[5] = test system: poly-IgG from human serum (h-poly-IgG); experiment: Microtiter plate chromatography of resins: binding and elution of human poly-IgG; conditions: fraction of injected protein bound; 0.5 mg/ml IgG in PBS pH 7.3
In short: as §1

Bevacizumab [6] = molecular target: T1, Bevacizumab; experiment: Microtiter plate chromatography of resins: binding and elution of Bevacizumab; conditions: for Bevacizumab Bound: fraction of injected protein bound, 0.5 mg/ml IgG in PBS pH 7.3, ligand immobilized on SEPHAROSE 4 FF; for Bevacizumab Yield: mass eluted (glycine pH 2.5) / mass injected
In short: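 About 30 μl packed resin columns loaded with 3.3 cv IgG at 0.5 mg ml^−1 in PBS or undiluted HCP, washed with 5 cv PBS, eluted with 5 cv glycine pH 2.5. Protein in fractions by Bradford. Bound fraction = (injected − flowthrough)/injected; yield = eluted/injected; selectivity = Bevacizumab bound fraction / HCP bound fraction, truncated beyond 10.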

host cell proteins (HCP) = experiment: Microtiter plate chromatography of resins: binding of host cell proteins; parameters: species or system CHO cell culture; conditions: fraction of injected undiluted host cell proteins bound
In short: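 Undiluted HCP-containing flowthrough from protein A chromatography of CHO serum-free culture was loaded onto ~30 µl packed resin columns in microtiter-plate format. Columns were washed with 5 cv PBS and eluted with glycine pH 2.5, and fractions were quantified by Bradford. Bound fraction = (injected − flowthrough mass)/injected mass.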

SMILES | Cetuximab Bound (Cetuximab) [%] | Dynamic Capacity (Bevacizumab [1]; 10% breakthrough, 1 mg/ml Bevacizumab, 50 cm/h (3 min residence time)) [mg/mL] | Equilibrium Capacity (Bevacizumab [1]; feed concentration 1 mg/ml Bevacizumab, integration above breakthrough curve) [mg/mL] | Tocilizumab Bound (Tocilizumab) [%] | t0.8 (time-scale of binding) (Bevacizumab [2]) [min] | Palivizumab Bound (Palivizumab) [%] | qm (maximum capacity) (Bevacizumab [3]) [mg/mL] | half-life [4] [days] | h-poly-IgG Bound [5] [%] | Bevacizumab Bound (Bevacizumab [6]) [%] | Bevacizumab Yield (Bevacizumab [6]) [%] | Kd (Bevacizumab [3]) [µM] | HCP Bound (host cell proteins (HCP)) [%]
NCCCn1cnc2cc(C(=O)Nc3nnc(-c4ccco4)s3)ccc21 [Ligand L05, 1-(3-Amino-1-propyl)benzimidazole-5-carboxylic acid N-[5-(2-furyl)-1,3,4-thiadiazol-2-yl]amide] | 100 | 25 | 39 | 100 | 9.8 | 100 | 47 | > 41.6 | 100 | 100 | 101 | – | 17
NCCCNc1ccc(C(=O)Nc2nc(-c3ccccn3)cs2)cn1 [Ligand L40, 6-[(3-Amino-1-propyl)amino]nicotinic acid N-[4-(2-pyridyl)thiazol-2-yl] amide] | 100 | – | – | 99 | 9.2 | 89 | 39 | 32.6 | 98 | 100 | 101 | – | 20.5
Cc1nc2cc(C(=O)Nc3nc(-c4ccccn4)cs3)ccc2n1CCCN [Ligand L42, 1-(3-Amino-1-propyl)-2-methylbenzimidazole-5-carboxylic acid N-[4-(2-pyridyl)thiazol-2-yl] amide] | 100 | – | – | 100 | 7.6 | 97 | 45 | > 41.6 | 100 | 100 | 98 | 318 | 13.5

Continued, in another order:

Cetuximab Bound (Cetuximab) [%] | Dynamic Capacity (Bevacizumab [1]; 10% breakthrough, 1 mg/ml Bevacizumab, 50 cm/h (3 min residence time)) [mg/mL] | Equilibrium Capacity (Bevacizumab [1]; feed concentration 1 mg/ml Bevacizumab, integration above breakthrough curve) [mg/mL] | Tocilizumab Bound (Tocilizumab) [%] | t0.8 (time-scale of binding) (Bevacizumab [2]) [min] | Palivizumab Bound (Palivizumab) [%] | qm (maximum capacity) (Bevacizumab [3]) [mg/mL] | half-life [4] [days] | h-poly-IgG Bound [5] [%] | Bevacizumab Bound (Bevacizumab [6]) [%] | Bevacizumab Yield (Bevacizumab [6]) [%] | Kd (Bevacizumab [3]) [µM] | SMILES | HCP Bound (host cell proteins (HCP)) [%]
100 | – | – | 100 | 8.2 | 98 | 43 | > 41.6 | 100 | 100 | 95 | 399 | CCc1nc2cc(C(=O)Nc3nc(-c4ccccn4)cs3)ccc2n1CCCN [Ligand L43, 1-(3-Amino-1-propyl)-2-ethylbenzimidazole-5-carboxylic acid N-[4-(2-pyridyl)thiazol-2-yl] amide] | 18
100 | – | – | 100 | 7.7 | 100 | 53 | > 41.6 | 100 | 100 | 88 | 265 | CCc1nc2cc(C(=O)Nc3nnc(-c4ccco4)s3)ccc2n1CCCN [Ligand L44, 1-(3-Amino-1-propyl)-2-ethylbenzimidazole-5-carboxylic acid N-[5-(2-furyl)-1,3,4-thiadiazol-2-yl] amide] | 16
100 | – | – | 100 | 6.0 | 98 | 48 | 30 | 100 | 100 | 103 | 185 | NCCCn1cnc2cc(C(=O)Nc3nc(-c4cccnc4)cs3)ccc21 [Ligand L46, 1-(3-Amino-1-propyl)benzimidazole-5-carboxylic acid N-[4-(3-pyridyl)thiazol-2-yl] amide] | 17
100 | – | – | 99 | 5.6 | 98 | 43 | > 41.6 | 100 | 100 | 100 | 169 | NCCCn1cnc2cc(C(=O)Nc3nc(-c4ccncc4)cs3)ccc21 [Ligand L47, 1-(3-Amino-1-propyl)benzimidazole-5-carboxylic acid N-[4-(4-pyridyl)thiazol-2-yl] amide] | 13
